Patent US20250025553A1, “COMBINATION THERAPY FOR CANCER” (Medannex Ltd., priority 2021, published 2025)
Entries after “also recorded” stand apart in the source; their conditions may differ. Like-named read-outs stand apart in the source and are kept apart here. One block for each molecule: values may come before it.

Columns and labels:
[1] = test system: p-STAT3 (Tyr705); test: Expression of apoptosis related protein p-STAT3 (flow cytometry); type: cell-based, human; conditions: MDX-124 20 μM, bortezomib 20 nM or both, 4 h; multiple myeloma cell lines
Description: (§1) The effects of MDX-124, bortezomib and the combination of both agents on the expression of 2 apoptosis related proteins, p-BCL2 and p-STAT3, was assessed using flow cytometry. Aliquots of each human multiple myeloma cell line were treated with either MDX-124 (20 μM), bortezomib (20 nM) or a combination of MDX-124 and bortezomib for 4 h prior to staining with an Alexa488-labelled p-STAT3 (Tyr705, from BD Biosciences, catalogue #557814) antibody and a PE-labelled p-BCL2 ([…], BD Biosciences, catalogue #562532) antibody. Mean fluorescence intensity values for each treatment group were compared with untreated control cells.

[2] = test system: Human multiple myeloma cell lines (H929, JJN3 and U266); test: Apoptosis assay (Annexin V and 7-AAD labelling, flow cytometry); type: cell-based; conditions: MDX-124 20 μM, bortezomib 20 nM or both (1000:1), 48 h
Description: The effect of MDX-124, bortezomib and the combination of both agents on apoptosis was assessed using Annexin V and 7-AAD labelling. Human multiple myeloma cell lines (H929, JJN3 and U266, all from DSMZ, Leibniz Institute, German Collection of Microorganisms and Cell Cultures, GmbH, Germany) were incubated with either MDX-124 (20 μM), bortezomib (20 nM, Cell Signaling Technology, MA, USA) or the combination of both agents (fixed molar ratio of 1000:1) in 1 mL of RPMI media supplemented with 10% FCS for 48 h. The percentage of apoptosis above untreated control cell levels was quantified using flow cytometry for each respective treatment group.

[3] = test system: p-BCL2 (pS70); test: Expression of apoptosis related protein p-BCL2 (flow cytometry); type: cell-based, human; conditions: MDX-124 20 μM, bortezomib 20 nM or both, 4 h; multiple myeloma cell lines
Description: as §1

[4] = test system: interleukin-6 (IL-6); test: Intracellular IL-6 expression (flow cytometry); type: cell-based, human; conditions: MDX-124 20 μM, bortezomib 20 nM or both, 24h; multiple myeloma cell lines
Description: The effects of each agent, both alone and in combination, on the expression of interleukin-6 (IL-6) were assessed using flow cytometry. […] Mean fluorescence intensity values for IL-6 for each respective treatment group were compared with untreated control cells.

[5] = test system: triple-negative breast cancer cell line HCC1806; test: MTT cell proliferation assay, HCC1806
[6] = test system: PANC-1 pancreatic cancer cell line; test: MTT cell proliferation assay, PANC-1; type: cell-based, human; conditions: for IC50: Homo sapiens, PANC-1, MTT
Description: (§2) The cell lines were obtained from Public Health England Culture Collections. MIA-PaCa-2 is a human pancreatic carcinoma cell line; PANC-1 is a human pancreatic epithelioid carcinoma cell line.
(§3) Assays were performed in triplicate.
(§4) Cells were then cultured for 24 hr prior to assay, then cell proliferation was measured.
(§5) With both cell lines 5FU was used at its IC50. The IC50 concentration represents the concentration at which a substance exerts half of its maximal inhibitory effect. The IC50 for each cell line was calculated by treating with a series of 10-fold dilutions of 5FU ranging from 1 nM to 10 mM. The MTT assay was used to calculate cancer cell viability after 72 hr incubation with 5FU at each concentration.

[7] = test system: MIA PaCa-2 pancreatic cancer cell line; test: MTT cell proliferation assay, MIA PaCa-2; type: cell-based, human
Description: as §2, §3, §4, §5

[8] = test system: LL/2 lung cancer cells; test: LL/2 murine model of lung cancer; type: in vivo, C57BL/6 mice; conditions: LL/2, MDX-124 10 mg/kg weekly, anti-PD-1 10 mg/kg twice weekly; two-way repeated measures ANOVA/mixed-effects model
Description: Drugs were administered as described above. Tumour volume was measured at days 2, 5, 8, 12 and 15, at which point the vehicle and monotherapy groups were terminated. The combination therapy group was measured again at day 19 and then terminated.
Results were analysed using a two-way repeated measures ANOVA/mixed-effects model. […] No body weight loss was detected in this study.

[9] = test system: EMT6 triple-negative breast cancer cells; test: EMT6 mouse model of breast cancer; type: in vivo, BALB/c mice
Description: Nine-week-old female BALB/c mice were inoculated subcutaneously with 5×10^5 EMT6 triple-negative breast cancer cells. […] Tumour volume was measured twice weekly for 3 weeks. The anti-PD-1 antibody used is the mouse antibody RMP-1-14 (Yamazaki et al., Journal of Immunology 175(3): 1586-1592, 2005); PBS was administered by intraperitoneal injection; antibodies were administered by intravenous injection.

Molecule: CC(C)C[C@H](NC(=O)[C@H](Cc1ccccc1)NC(=O)c1cnccn1)B(O)O [bortezomib, reference compound]
expression of p-STAT3 (mean fluorescence intensity vs untreated control cells) [1]: reduced the expression | apoptosis (percentage above untreated control cell levels) [2]: significantly induced apoptosis | expression of p-BCL2 (mean fluorescence intensity vs untreated control cells) [3]: reduced the expression | intracellular IL-6 expression (mean fluorescence intensity vs untreated control cells) [4]: modestly reduced

Molecule: N.N.[Cl][Pt][Cl] [cisplatin, reference compound]
IC50 ([5]; read-out: IC50 of cisplatin (concentration at which 50% of cells were not viable), HCC1806, MTT, repeated four times): 0.65 µM

IC50 ([6]; repeated three times, read-out: IC50 of gemcitabine (concentration at which 50% of cells were not viable)): 20 µM
Molecule: Nc1ccn([C@@H]2O[C@H](CO)[C@@H](O)C2(F)F)c(=O)n1 [gemcitabine, reference compound]

Molecule: MDX-124: humanised IgG1 antibody against ANXA1 with a light chain of SEQ ID NO: 13 and a heavy chain of SEQ ID NO: 14
expression of p-STAT3 (mean fluorescence intensity vs untreated control cells) [1]: reduced the expression | anti-proliferative effect, single agent ([6]; PANC-1, MDX-124 alone 2.5-10 μM, 72 hours, vs IgG isotype control): significantly reduces cancer cell proliferation; also recorded: relatively potent anti-proliferative effect | anti-proliferative effect, single agent ([5]; HCC1806, MDX-124 alone 2.5-10 μM, vs IgG isotype control): significantly reduces cancer cell proliferation; also recorded: anti-proliferative effect | anti-proliferative effect, single agent ([7]; MIA PaCa-2, MDX-124 alone 2.5-10 μM, 72 hours, vs IgG isotype control): significantly reduces cancer cell proliferation; also recorded: relatively potent anti-proliferative effect | apoptosis (percentage above untreated control cell levels) [2]: had an impact on apoptosis | tumour growth compared to vehicle (and monotherapies) [8]: No significant differences | expression of p-BCL2 (mean fluorescence intensity vs untreated control cells) [3]: reduced the expression | intracellular IL-6 expression (mean fluorescence intensity vs untreated control cells) [4]: modestly reduced

IC50 ([6]; 72 hr incubation, repeated 8 times, read-out: IC50 of 5FU (concentration at which 50% of cells were not viable)): 1000 µM | IC50 ([7]; Homo sapiens, MIA PaCa-2, MTT, 72 hr incubation, repeated 8 times, read-out: IC50 of 5FU (concentration at which 50% of cells were not viable)): 100 µM
Molecule: O=c1[nH]cc(F)c(=O)[nH]1 [5FU, 5-fluorouracil, reference compound]

Molecule: CC(=O)O[C@H]1C(=O)[C@@]2(C)[C@H]([C@H](OC(=O)c3ccccc3)[C@]3(O)C[C@H](OC(=O)[C@H](O)[C@@H](NC(=O)c4ccccc4)c4ccccc4)C(C)=C1C3(C)C)[C@]1(OC(C)=O)CO[C@@H]1C[C@@H]2O [paclitaxel, reference compound]
IC20 ([5]; Homo sapiens, HCC1806, read-out: IC20 of paclitaxel (concentration at which 20% of cells were not viable)): 0.0004 µM

B1: MDX-001: murine anti-ANXA1 antibody, parent of MDX-124; light and heavy chains of SEQ ID NOs: 30 and 31 (antibody, listed as Mus musculus)
heavy: QVQLQQSGPELVRPGTSVKMSCKASGYTFTNYWIGWAKQRPGHGLEWIGDIYPGGDYTNYNEKFKGKATLTADKSSSTAYMQFSSLTSEDSAIYYCARWGLGYYFDYWGQGITLTVSSAKTTPPSVYPLAPGCGDTTGSSVTLGCLVKGYFPESVTVTWNSGSLSSSVHTFPALLQSGLYTMSSSVTVPSSTWPSQTVTCSVAHPASSTTVDKKLEPSGPISTINPCPPCKECHKCPAPNLEGGPSVFIFPPNIKDVLMISLTPKVTCVVVDVSEDDPDVQISWFVNNVEVHTAQTQTHREDYNSTIRVVSTLPIQHQDWMSGKEFKCKVNNKDLPSPIERTISKIKGLVRAPQVYILPPPAEQLSRKDVSLTCLVVGFNPGDISVEWTSNGHTEENYKDTAPVLDSDGSYFIYSKLNMKTSKWEKTDSFSCNVRHEGLKNYYLKKTISRSPGK
light: DAVMTQTPLSLPVSLGDQVSISCRSSQSLENSNGKTYLNWYLQKPGQSPQLLIYGVSNRFSGVLDRFSGSGSGTDFTLKISRVEAEDLGVYFCLQVTHVPYTFGGGTKLEIKRADAAPTVSIFPPSSEQLTSGGASVVCFLNNFYPKDINVKWKIDGSERQNGVLNSWTDQDSKDSTYSMSSTLTLTKDEYERHNSYTCEATHKTSTSPIVKSFNRNEC
tumour growth compared to the vehicle control ([9]; EMT6, MDX-001 10 mg/kg weekly, anti-PD-1 10 mg/kg twice weekly, i.v., 3 weeks): did not significantly affect tumour growth | adverse effects ([9]; EMT6 model): no adverse effects | tumour growth compared to vehicle (and monotherapies) [8]: neither MDX-001 nor the anti-PD-1 antibodies displayed efficacy
